Experimental data as given in article PMC3292467, “Comparison between ^68Ga-bombesin (^68Ga-BZH3) and the cRGD tetramer ^68Ga-RGD4 studies in an experimental nude rat model with a neuroendocrine pancreatic tumor cell line” (EJNMMI Research, 2011).
“Also recorded” adds a separate entry of the source. Read-outs that look alike come from different tables or passages of the source. Square brackets hold non-standard residues; d marks the D form. Peptide text beside a SMILES is read from it. * marks the point of attachment. DOTA = O=C(O)CN1CCN(CC(=O)O)CCN(CC(=O)*)CCN(CC(=O)O)CC1; 2Thi = N[C@@H](Cc1cccs1)C(=O)O; Nle = CCCC[C@H](N)C(=O)O; AEEA = NCCOCCOCC(=O)O; βAla = NCCC(=O)O

Experiments:
[1] = 3D fused PET-CT images; male rat
Method: The study included nine AR 42 J tumor-bearing nude rats. We grouped all rats according to PET tracers (B, ^68Ga-BZH3 and R, ^68Ga-RGD4), used in dynamic PET scanning, as noted in Table 1. Dynamic PET studies were performed for 60 min after the intravenous application of 10 to 30 MBq ^68Ga-RGD4 or 20 to 40 MBq ^68Ga-BZH3, using a 28-frame protocol (ten frames of 30 s, five frames of 60 s, five frames of 120 s, and eight frames of 300 s). Two animals can be examined in parallel per scanning by a homemade injector (Figure 2). A dedicated PET-CT system (Biograph™ mCT, 128 S/X, Siemens Co, Erlangen, Germany) with an axial field of view of 21.6 cm with TrueV, operated in a three-dimensional mode, was used for all animal studies. The system provides the simultaneous acquisition of 369 transverse slices with a slice thickness of 0.6 mm. The animals were positioned in the axial plane of the system to maintain the best resolution in the center of the system. […] The SUV images were used for all further quantitative evaluations.
Dynamic PET data were evaluated using the software package PMOD (provided courtesy of PMOD Technologies Ltd., Zuerich, Switzerland). Areas with enhanced tracer uptake on transaxial, coronal, and sagittal images were evaluated visually. […] A detailed quantitative evaluation of tracer kinetics requires the use of compartmental modeling. […]

AR42J tumor [2] = conditions: for VB (vessel density, fractional blood volume) / K1 (transport into the cell; associated with receptor binding) / RBP (receptor binding potential) / k2 (displacement from the receptor) / k3 (cellular internalisation) / k4 (externalization): AR42J tumor-bearing nude rats, n = 5 (BZH3), n = 4 (RGD4); for VB (vessel density, fractional blood volume): dynamic PET 60 min, i.v.
Method: The AR42J cell line, derived from a rat exocrine pancreas neuroendocrine tumor, was used. Cells were obtained from the European Collection of Cell Cultures and were grown in RPMI 1640 medium supplemented with 2 mmol/L glutamine and 10% fetal calf serum. Adherent cells were dislodged with trypsin/ethylenediaminetetraacetic acid (0.02%: 0.05%, w/v). For PET-studies, 5 × 10^6 cells in 200 μl RPMI without supplements were inoculated subcutaneously in the right hind leg of Wistar rats.
The study included nine AR 42 J tumor-bearing nude rats. We grouped all rats according to PET tracers (B, ^68Ga-BZH3 and R, ^68Ga-RGD4), used in dynamic PET scanning, as noted in Table 1. Dynamic PET studies were performed for 60 min after the intravenous application of 10 to 30 MBq ^68Ga-RGD4 or 20 to 40 MBq ^68Ga-BZH3, using a 28-frame protocol (ten frames of 30 s, five frames of 60 s, five frames of 120 s, and eight frames of 300 s). Two animals can be examined in parallel per scanning by a homemade injector (Figure 2). A dedicated PET-CT system (Biograph™ mCT, 128 S/X, Siemens Co, Erlangen, Germany) with an axial field of view of 21.6 cm with TrueV, operated in a three-dimensional mode, was used for all animal studies. The system provides the simultaneous acquisition of 369 transverse slices with a slice thickness of 0.6 mm. The animals were positioned in the axial plane of the system to maintain the best resolution in the center of the system. All PET images were attenuation-corrected and an image matrix of 400 × 400 pixels was used for iterative image reconstruction (voxel size 1.565 × 1.565 × 0.6 mm) based on the syngo MI PET/CT 2009C software version. After the end of the dynamic series an ultrahigh resolution CT with 85 mA, 80 kV and a pitch of 0.85 cm was performed for attenuation correction of the acquired dynamic emission data. The reconstructed images were converted to SUV images based on the formula [24]: SUV = Tissue concentration (becquerel per gram)/[injected dose ([…]))/body weight (gram)]. The SUV 55 to 60 min post-injection was used for the assessment of both tracers. The SUV images were used for all further quantitative evaluations.
Dynamic PET data were evaluated using the software package PMOD (provided courtesy of PMOD Technologies Ltd., Zuerich, Switzerland). Areas with enhanced tracer uptake on transaxial, coronal, and sagittal images were evaluated visually. A volume of interest consists of several regions of interest over the target area. Irregular regions of interest were drawn manually. A detailed quantitative evaluation of tracer kinetics requires the use of compartmental modeling. A two-tissue-compartment model was used to evaluate the dynamic studies.
In animals, a partial volume correction must be applied to the data due to the small size of the input and tumor volumes of interest (VOIs). Herein, the recovery coefficient was 0.85 for a diameter of 8 mm and 0.32 for a diameter of 3 mm based on phantom measurements as well as the recent parameter settings used with the reconstruction software. For the input function the mean values of the VOI data obtained from the heart were used. We used a preprocessing tool, which allowed a fit of the input curve by a sum of up to three decaying exponentials. The learning-machine two-tissue-compartment model was used for the fitting and provided five parameters: the transport parameters for tracer into and out of the cell, K1 and k2, the parameters for phosphorylation and dephosphorylation of intracellular tracer, k3 and k4, and the fractional blood volume, also called vessel density (VB), which reflects the amount of blood in the VOI. Following compartment analysis, we calculated the global influx of tracer from the compartment data using the formula: influx = (K1 × k3)/(k2 + k3). […] The model parameters were accepted when K1 - k4 was less than 1 and VB exceeded 0. The unit for the rate constants K1 to k4 was 1/min.

[3] = Dynamic PET, tumor uptake (SUV) in AR42J tumor-bearing nude rats; assay type: in vivo, rat; conditions: rat, in vivo, iv, i.v. 20 to 40 MBq (BZH3, n = 5), 10 to 30 MBq (RGD4, n = 4), nude rats, read-out: SUV (standardized uptake value) in tumor
Excerpt: (§1) Irregular regions of interest were drawn manually.

AR42J tumor [4] = assay: as above; assay type: in vivo, rat; conditions: for SUV (standardized uptake value) in tumor: 55 to 60 min post-injection, i.v. 20 to 40 MBq (BZH3, n = 5), 10 to 30 MBq (RGD4, n = 4), nude rats
Excerpt: as §1

gliomas = conditions: compared with ^68Ga-DOTATOC in meningiomas, ref [47]; cited from earlier work
Excerpt: Concerning the ^68Ga-BZH3 kinetics, k1 is a parameter that reflects the receptor binding and k3 is a parameter that reflects the internalization of the tracer.

[5] = system: gastrointestinal stromal tumors; conditions: ref [15], cited from earlier work
Excerpt: Bombesin and the two mammalian bombesin-like peptides, […] regulate many biologic response processes through activation of distinct receptor subtypes, including modulation of smooth muscle contraction, secretion of neuropeptides and hormones, as well as stimulation of cell growth. Activation of neuromedin B (BB1) receptors has been reported in various human cancers.

[6] = median, between tracers P 0.05*

## CCCC[C@H](NC(=O)[C@H](Cc1cccs1)NC(=O)[C@H](Cc1c[nH]cn1)NC(=O)CCNC(=O)[C@@H](NC(=O)[C@H](C)NC(=O)[C@H](Cc1c[nH]c2ccccc12)NC(=O)[C@H](CCC(N)=O)NC(=O)[C@@H](Cc1ccc(O)cc1)NC(=O)COCCOCCNC(=O)COCCOCCNC(=O)CN1CCN(CC(=O)O)CCN(CC(=O)O)CCN(CC(=O)O)CC1)C(C)C)C(N)=O [^68Ga-BZH3, DOTA-PEG2-[D-Tyr^6 -β-Ala^11 -Thi^13 -Nle^14]BN(6-14) amide, metal not drawn] ({DOTA-AEEA-AEEA}-[dY]QWAV[βAla]H[2Thi][Nle]-NH2)
[1]
  tracer uptake in other sites: liver, kidney, urinary bladder, and testicles
AR42J tumor [2]; ^68Ga-BZH3 vs ^68Ga-RGD tetramer
  FD, VB, K1 and RBP compared between tracers: generally higher than the corresponding values for the ^68Ga-RGD tetramer
AR42J tumor [2]; maximum
  VB (vessel density, fractional blood volume): 0.1646
  K1 (transport into the cell; associated with receptor binding): 0.4862 min⁻¹
  RBP (receptor binding potential): 0.1202
  k2 (displacement from the receptor): 0.6103 min⁻¹
  k3 (cellular internalisation): 0.2005 min⁻¹
  k4 (externalization): 0.1746 min⁻¹
AR42J tumor [2]; mean
  VB (vessel density, fractional blood volume): 0.1037
  K1 (transport into the cell; associated with receptor binding): 0.3717 min⁻¹
  RBP (receptor binding potential): 0.0765
  k2 (displacement from the receptor): 0.4808 min⁻¹
  k3 (cellular internalisation): 0.1235 min⁻¹
  k4 (externalization): 0.0986 min⁻¹
AR42J tumor [2]; [6]
  VB (vessel density, fractional blood volume): 0.0903
  K1 (transport into the cell; associated with receptor binding): 0.3506 min⁻¹
  k4 (externalization): 0.1005 min⁻¹
AR42J tumor [2]; median, between tracers P 0.0275*
  RBP (receptor binding potential): 0.0607
AR42J tumor [2]; median, between tracers P 0.4624
  k2 (displacement from the receptor): 0.5216 min⁻¹
AR42J tumor [2]; median, between tracers P 0.8065
  k3 (cellular internalisation): 0.1177 min⁻¹
AR42J tumor [2]; minimum
  VB (vessel density, fractional blood volume): 0.0603
  K1 (transport into the cell; associated with receptor binding): 0.3055 min⁻¹
  RBP (receptor binding potential): 0.0506
  k2 (displacement from the receptor): 0.2768 min⁻¹
  k3 (cellular internalisation): 0.0580 min⁻¹
  k4 (externalization): 0.0493 min⁻¹
[3]; mean, 55 to 60 min post-injection
  SUV: 1.08 SUV
[3]; median, 55 (56) to 60 min post-injection, between tracers P 0.8065
  SUV: 1.19 SUV
AR42J tumor [4]; 3D fused PET-CT image, tumor in lower leg
  tumor visualisation: clearly showed enhanced ^68Ga-BZH3 uptake in the tumor area in the lower leg
AR42J tumor [4]; ^68Ga-BZH3 vs ^68Ga-RGD4, AR42J tumor-bearing nude rats
  tumor uptake compared with the other tracer: generally higher than ^68Ga-RGD4 uptake; also recorded: higher than that of ^68Ga-RGD4
AR42J tumor [4]; maximum
  SUV (standardized uptake value) in tumor: 1.2884
AR42J tumor [4]; minimum
  SUV (standardized uptake value) in tumor: 0.8628
gliomas
  internalization: higher internalization
  receptor binding: lower receptor binding
[5]
  uptake compared with ^18F-FDG: lower than ^18F-FDG
[5]; subgroup of patients
  uptake in gastrointestinal stromal tumors: enhanced ^68Ga-BZH3 uptake in a subgroup of patients with gastrointestinal stromal tumors
